Assays:
Format in all cases: in vivo
[1] = test system: Lolium perenne (LOLPE); experiment: B1 Pre-emergence herbicidal activity; parameters: key to Pre-emergence herbicidal activity, LOLPE (damage score 0-5): 5=total damage to plant; 0=no damage to plant; settings: pre-emergence application, evaluated after 13 days
Procedure, shortened: (§1)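 Damage was rated visually on a 0–5 scale (0 no damage, 5 total damage) 13 days after treatment. Soil-sown seeds had been sprayed one day after sowing with an aqueous acetone/water (50:50) solution containing 0.5% Tween 20, then kept in a glasshouse at 24/16 °C, 14 h light, 65% humidity.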

[2] = test system: Alopecurus myosuroides (ALOMY); experiment: B1 Pre-emergence herbicidal activity; parameters: key: 5=total damage to plant; 0=no damage to plant; settings: pre-emergence application, evaluated after 13 days
Procedure, shortened: as §1

[3] = test system: Triticum aestivium (TRZAW); experiment: B1 Pre-emergence herbicidal activity; parameters: key: 5=total damage to plant; 0=no damage to plant; settings: pre-emergence application, evaluated after 13 days
Procedure, shortened: as §1

[4] = test system: Avena fatua (AVEFA); experiment: B1 Pre-emergence herbicidal activity; parameters: key: 5=total damage to plant; 0=no damage to plant; settings: pre-emergence application, evaluated after 13 days
Procedure, shortened: as §1

[5] = test system: Lolium perenne (LOLPE); experiment: B2 Post-emergence herbicidal activity; settings: post-emergence application, evaluated after 13 days
Procedure, shortened: (§2)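 Visual damage score (0 = none, 5 = total) taken 13 days after treatment. Seedlings had been cultivated 8 days in pots of standard soil before being sprayed with an aqueous solution of compound in acetone/water (50:50) containing 0.5% Tween 20.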

[6] = test system: Alopecurus myosuroides (ALOMY); experiment: B2 Post-emergence herbicidal activity; parameters: key: 5=total damage to plant; 0=no damage to plant; settings: post-emergence application, evaluated after 13 days
Procedure, shortened: as §2

[7] = test system: Triticum aestivium (TRZAW); experiment: B2 Post-emergence herbicidal activity; parameters: key: 5=total damage to plant; 0=no damage to plant; settings: post-emergence application, evaluated after 13 days
Procedure, shortened: as §2

[8] = test system: Setaria fabenri (SETFA); experiment: B2 Post-emergence herbicidal activity; parameters: key: 5=total damage to plant; 0=no damage to plant; settings: post-emergence application, evaluated after 13 days
Procedure, shortened: as §2

[9] = test system: Echinochloa crus-galli (ECHCG); experiment: B2 Post-emergence herbicidal activity; parameters: key to Post-emergence herbicidal activity, ECHCG (damage score 0-5): 5=total damage to plant; 0=no damage to plant; settings: post-emergence application, evaluated after 13 days
Procedure, shortened: as §2

[10] = test system: Echinochloa crus-galli (ECHCG); experiment: B1 Pre-emergence herbicidal activity; parameters: key to Pre-emergence herbicidal activity, ECHCG (damage score 0-5): 5=total damage to plant; 0=no damage to plant; settings: pre-emergence application, evaluated after 13 days
Procedure, shortened: as §1

[11] = test system: Avena fatua (AVEFA); experiment: B2 Post-emergence herbicidal activity; settings: post-emergence application, evaluated after 13 days
Procedure, shortened: as §2

[12] = test system: Setaria fabenr (SETFA); experiment: B1 Pre-emergence herbicidal activity; parameters: key to Pre-emergence herbicidal activity, SETFA (damage score 0-5): 5=total damage to plant; 0=no damage to plant; settings: pre-emergence application, evaluated after 13 days
Procedure, shortened: as §1

Row | Compound | Pre-emergence herbicidal activity, LOLPE (damage score 0-5) ([1]; rate 1000 g/ha) | Pre-emergence herbicidal activity, ALOMY (damage score 0-5) ([2]; rate 1000 g/ha) | Pre-emergence herbicidal activity, TRAZW (damage score 0-5) ([3]; rate 1000 g/ha) | Pre-emergence herbicidal activity, AVEFA (damage score 0-5) ([4]; rate 1000 g/ha) | Post-emergence herbicidal activity, LOLPE (damage score 0-5) ([5]; rate 1000 g/ha) | Post-emergence herbicidal activity, ALOMY (damage score 0-5) ([6]; rate 1000 g/ha) | Post-emergence herbicidal activity, TRAZW (damage score 0-5) ([7]; rate 1000 g/ha) | Post-emergence herbicidal activity, SETFA (damage score 0-5) ([8]; rate 1000 g/ha) | Post-emergence herbicidal activity, ECHCG (damage score 0-5) ([9]; rate 1000 g/ha) | Pre-emergence herbicidal activity, ECHCG (damage score 0-5) ([10]; rate 1000 g/ha) | Post-emergence herbicidal activity, AVEFA (damage score 0-5) ([11]; rate 1000 g/ha) | Pre-emergence herbicidal activity, SETFA (damage score 0-5) ([12]; rate 1000 g/ha) | further results
1 | C=CCN(C(=O)C(C)C)c1ccc(-c2cncc(F)c2)nc1C(F)(F)F [Compound C16] | 2 | 0 | 0 | 1 | 3 | 1 | 1 | 5 | 5 | 4 | 4 | 5 | –
2 | CCC(=O)N(C(C)=O)c1ccc(-c2cncc(F)c2)nc1C(F)(F)F [Compound C121, N-acetyl-N-[6-(5-fluoro-3-pyridyl)-2-(trifluoromethyl)-3-pyridyl]propanamide] | – | – | – | – | – | – | – | – | – | – | – | – | Pre-emergence herbicidal activity, LOLPE (damage score 0-5) ([1]; rate 250 g/ha): 1; Pre-emergence herbicidal activity, ALOMY (damage score 0-5) ([2]; rate 250 g/ha): 0; Pre-emergence herbicidal activity, TRAZW (damage score 0-5) ([3]; rate 250 g/ha): 0; Pre-emergence herbicidal activity, AVEFA (damage score 0-5) ([4]; rate 250 g/ha): 2; Post-emergence herbicidal activity, LOLPE (damage score 0-5) ([5]; rate 250 g/ha): 3; Post-emergence herbicidal activity, ALOMY (damage score 0-5) ([6]; rate 250 g/ha): 1; Post-emergence herbicidal activity, TRAZW (damage score 0-5) ([7]; rate 250 g/ha): 1; Post-emergence herbicidal activity, SETFA (damage score 0-5) ([8]; rate 250 g/ha): 5; Post-emergence herbicidal activity, ECHCG (damage score 0-5) ([9]; rate 250 g/ha): 4; Pre-emergence herbicidal activity, ECHCG (damage score 0-5) ([10]; rate 250 g/ha): 3; Post-emergence herbicidal activity, AVEFA (damage score 0-5) ([11]; rate 250 g/ha): 4; Pre-emergence herbicidal activity, SETFA (damage score 0-5) ([12]; rate 250 g/ha): 5
3 | O=C(Nc1ccc(-c2cncc(F)c2)nc1C(F)(F)F)c1cc(F)c(F)cc1F [Compound C33] | 1 | 0 | 0 | 1 | 1 | 0 | 0 | 3 | 2 | 1 | 2 | 2 | –
4 | O=C(CCl)Nc1ccc(-c2cncc(F)c2)nc1C(F)(F)F [Compound C35] | 1 | 0 | 0 | 1 | 2 | 0 | 0 | 5 | 5 | 4 | 3 | 4 | –
5 | CC(C)C(=O)N(c1ccc(-c2cncc(F)c2)nc1C(F)(F)F)C(C)C [Compound C90] | 0 | 0 | 0 | 0 | 1 | 0 | 1 | 4 | 4 | 2 | 2 | 2 | –
6 | O=CNc1ccc(-c2cncc(F)c2)nc1C(F)(F)F [Compound C112] | 1 | 1 | 0 | 2 | 3 | 0 | 1 | 1 | 4 | 3 | 3 | 4 | –
7 | CC(=O)OC(C)(C)C(=O)Nc1ccc(-c2cncc(F)c2)nc1C(F)(F)F [Compound C36] | 1 | 0 | 0 | 1 | 1 | 0 | 1 | 5 | 5 | 4 | 2 | 4 | –
8 | Cc1nc(-c2cncc(F)c2)ccc1NC(=O)C(C)C [Compound C3] | 1 | 0 | 0 | 0 | 3 | 1 | 1 | 5 | 5 | 4 | 3 | 5 | –
9 | CCOC(=O)CC(=O)Nc1ccc(-c2cncc(F)c2)nc1C(F)(F)F [Compound C42] | 1 | 0 | 0 | 2 | 2 | 0 | 1 | 5 | 5 | 4 | 4 | 4 | –
10 | CC(=O)Nc1ccc(-c2cncnc2)nc1C(F)(F)F [Compound C7] | 1 | 0 | 0 | 3 | 3 | 1 | 1 | 5 | 4 | 4 | 4 | 4 | –
11 | CSCCN(C(=O)C(C)C)c1ccc(-c2cncc(F)c2)nc1C(F)(F)F [Compound C88] | 0 | 0 | 0 | 0 | 1 | 1 | 1 | 2 | 1 | 1 | 1 | 2 | –
12 | CCC(=O)N(C(=O)CC)c1ccc(-c2cncc(F)c2)nc1C(F)(F)F [Compound C44] | 1 | 0 | 0 | 2 | 3 | 1 | 0 | 5 | 5 | 5 | 3 | 4 | –

— patent US11230538B2, “Herbicides” (SYNGENTA PARTICIPATIONS AG, priority 2016, dated 2022)
